Measurements taken from patent publication US20070254861A1, “Methods for the prevention and/or treatment of peripheral arterial disease” (Astellas Pharma Inc., priority 2006, published 2007).
Read-outs that look alike come from different tables or passages of the source. Numbered stars: 1 amine (or outer) side, 2 acyl side, 3 side chain; on linkers, the order of the positions; unused ones are H or OH. Bridge positions count the residues as written; N and C are the ends. Square brackets hold non-standard residues; d marks the D form. Peptide text beside a SMILES is read from it. Leu(3R-O(AcLeu(3R-OH))) = CC(=O)N[C@H](C(=O)O[C@H](C(C)C)[C@H](N)C(=O)O)[C@H](O)C(C)C; X1 = CO[C@H](C)C(C(=O)[*:2])N(C)[*:1]; dPhLac = O=C(O)[C@H](O)Cc1ccccc1; NMeA = CN[C@@H](C)C(=O)O; NMeDha = C=C(NC)C(=O)O

Experiments:
[1] = test system: lauric acid-induced peripheral arterial disease model; assay: Lesion progression in rat peripheral arterial disease model induced by lauric acid; assay type: in vivo
Method: A rat peripheral arterial disease model was produced by using a lauric acid injection method modified from that of Ashida et al. (Thrombosis research, 18, 55, 1980). Six to 24 animals were used in each group of this experiment. After being fasted overnight, each rat was anesthetized with pentobarbital (60 mg/kg i.p.), and the left femoral artery was freed from the surrounding tissue. The femoral artery was cannulated with a polyethylene catheter for i.a. injection of the lauric acid and the test drug. For the i.v. infusion of PGE1, the jugular vein was cannulated with a polyethylene catheter. To induce peripheral arterial vascular injury, 0.33 ml/kg of lauric acid (7.5 mg/ml in distilled water) was injected into the distal side of the arterial. Compound (I) was administered in a single i.a. bolus injection 15 minutes after the lauric acid injection. PGE1 was administered either intravenously for 30 minutes at 1 μg/kg/minutes starting 5 minutes before the lauric acid injection or intra-arterially for 15 minutes at 0.2 μg/kg/minutes starting 5 minutes after the lauric acid injection. Clopidogrel was administered orally either at 3 and 30 mg/kg 4 hours before the lauric acid injection, or at 30 mg/kg 2 hours after the lauric acid injection. It was also administered orally once a day for 3 days after the lauric acid injection. The treated hindlimb was examined macroscopically on days 3 after the lauric acid injection. The progress of the lesion was assessed using the following 5-point graded scoring system: grade 0: normal appearance, grade 1: the affected region was limited to the nails, grade 2: the affected region was limited to the fingers, grade 3: either the fingers are beginning to fall off or lesions appear on the paw, grade 4: either the paw is beginning to fall off or lesions appear on the leg. The condition of each toe was assessed and scored, and the sum of the scores for the five toes was used as the lesion index. If a lesion developed on the sole of the foot, 5 more points were added.

[2] = test system: dermal blood flow in rat hindlimbs; assay: Decreased dermal blood flow after lauric acid injection (laser Doppler); assay type: in vivo
Method: Three male SD rats (Japan CLEA) were used in each group of this experiment. A laser Doppler blood flow meter (Laser Doppler Perfusion Imager System, Lisca) was used to evaluate the perfusion in the left (ischemic) and right (non-ischemic) rat hindlimbs. Before and during scanning, animals were placed on a heating plate set at 37° C. to minimize variations in temperature. The femoral artery was cannulated with a polyethylene catheter for i.a. injection of the lauric acid and test drug. For i.v. PGE1 infusion, the jugular vein was cannulated with a polyethylene catheter. Either compound (I) (10 μg/kg) or vehicle was administered in an i.a. bolus injection 15 minutes after the lauric acid injection (0.33 ml/kg, 7.5 mg/ml in distilled water). The laser Doppler images were recorded just before and 10 minutes after the lauric acid injection, as well as 10 minutes after the compound (I) (or vehicle) injection. PGE1 was administered by i.v. infusion at a rate of 1 μg/kg/minutes for 30 minutes beginning 5 minutes before the lauric acid injection. The laser Doppler images were recorded just before and 5 minutes after the start of infusion (just before the lauric acid injection), and then again 10 minutes after the lauric acid injection. Either vehicle (0.5% methylcellulose solution) or clopidogrel (30 mg/kg) was orally administered 4 hours before the experiment. For the oral studies, the laser Doppler images were recorded just before and 10 minutes after the lauric acid injection.

isolated rat aorta = assay: Vasorelaxant effect on vasoconstriction in isolated rat aorta; assay type: cell-based; settings: for IC50: Rattus norvegicus
Method: Four male SD rats (Japan CLEA) were used in each group of this experiment. Rats were anesthetized with pentobarbital (60 mg/kg i.p.) and euthanized via exsanguination. The aortas were isolated and all adjacent tissue was removed. Rings of aorta, approximately […] length, were suspended in 10-ml organ baths containing Krebs-Henseleit solution (henceforth referred to as Krebs) of the following composition (mM): NaCl, 112.0; KCl, 4.7; KH2PO4, 1.2; MgSO4, 1.2; CaCl2, 2.5; NaHCO3, 25.0; glucose, 11.0. The Krebs was maintained at 37±1° C. and aerated with a gas mixture of 95% O2:5% CO2 (pH 7.4). Experiments were conducted on aortic tissue of two types. For type 1, the endothelium was removed by gently rubbing the internal surface of the vessel. For type 2, care was taken to maintain the integrity of the endothelium. One ring was placed on a hook that was suspended from a force displacement transducer (SB-1T, Nihon Kohden, Tokyo, Japan), 1.0 g tension was applied, and changes in the force of contraction were isometrically measured. Following a 1-h equilibration period, the rings were pretreated with 1 μM phenylephrine. Compound (I) was dissolved in dimethyl sulfoxide (DMSO) and added to the baths (0.1% DMSO, v/v), after which a cumulative compound (I) (1-100 nM) concentration-response curve was constructed for each type of ring. Contractions were caused in aorta rings with endothelium using three different compounds: 10 μM serotonin (5-HT), 30 nM endothelin-1 (ET-1), and 60 mM KCl. The vasorelaxant effect of compound (I) on the contractions caused by each of these compounds was then compared. Various concentrations of compound (I) were added 30 minutes before treatment with each vasoconstrictor. For 5-HT and KCl, the concentration-inhibition rate was measured for each tissue. For ET-1, each tissue was used to measure the inhibition rate in response to a given concentration of compound (I).

[3] = test system: ADP-induced platelet aggregation; assay: Ex vivo platelet aggregation inhibition after single administration in the rat femoral artery; settings: 5 minutes after injection, n=4, mean±SEM
Method: Four male SD rats (Japan CLEA) were used in each group of this experiment. All animals were fasted overnight before the experiment. After being anesthetized with pentobarbital (60 mg/kg i.p.), vehicle (5% ethanol) or compound (I) was injected into either the left femoral artery or the right jugular vein via a catheter. The rats were anesthetized with pentobarbital (60 mg/kg i.p.) before blood sampling. Blood was collected from the vena cava in syringes containing 3.8% sodium citrate at the following time points: 5 minutes after an intra-arterial (i.a.) single bolus injection of compound (I) (1-10 μg/kg). Platelet-rich plasma was obtained by centrifuging the blood at 200×g for 5 minutes at ambient temperature. This residue was further centrifuged at 2,000×g for 10 minutes in order to obtain platelet-poor plasma. Platelet counts were measured with an automatic cell counter (MEK-6258, Nihon Kohden, Tokyo, Japan), and adjusted to 3×10^5/μl with platelet-poor plasma. Platelet aggregation in platelet-rich plasma was measured using an aggregometer (MCM Hema Tracer 212, MC Medical, Tokyo, Japan) to record the increase in light transmission detected through a stirred suspension maintained at 37° C. for 5 minutes. Platelet aggregation was induced in 90 μl of platelet-rich plasma (3×10^5/μl) by adding 10 μl of 50 μM ADP. The inhibitory rate was calculated by dividing the absorbance area for the mixture containing the test sample by the absorbance area obtained for the vehicle-treated group.

[4] = test system: systemic blood pressure and heart rate; assay: Blood pressure and heart rate after single bolus injection in femoral artery of rats; assay type: in vivo, rat
Method: Five male SD rats (Japan CLEA) were used in each group of this experiment. The rats, which were fasted overnight, were anesthetized with urethane (1.4 g/kg i.p.) and then secured on an operating table. The left carotid artery was cannulated with polyethylene catheters in order to monitor systemic blood pressure and heart rate. The left femoral artery was likewise cannulated with polyethylene catheters for the injection of compound (I). Systemic blood pressure was measured with a pressure transducer (AP-200T, Nihon Kohden) and heart rate was measured with a tachometer (AT-600G, Nihon Kohden) that was triggered by the arterial pulse wave. Changes in these parameters were continuously monitored by a thermal recorder (WT-685G, Nihon Kohden). Compound (I) was administered in an i.a. bolus injection at the rate of 5 mL/kg. The dosage (10 to 100 μg/kg) was increased every 10 to 20 minutes. The inhibitory rate was calculated by dividing the heart rate and mean blood pressure levels obtained after the compound (I) injection by them obtained after the vehicle injection.

[5] = Pharmacokinetic studies using rats, i.v. bolus injection; assay type: in vivo; settings: rat, iv, plasma, after i.v. bolus injection
Gq/11 = settings: Journal of Biological Chemistry, 279, 47438, 2004; cited from earlier work
[6] = test system: ADP-induced platelet aggregation; settings: JP-2003-210190; Journal of Antibiotics, 56, 358, 2003; cited from earlier work

CCCCC[C@H](O)/C=C/[C@H]1[C@H](O)CC(=O)[C@@H]1CCCCCCC(=O)O [PGE1, prostaglandin E1]
Inhibition of lesion progression ([1]; i.a. infusion at 0.2 μg/kg/minutes for 15 minutes starting 5 minutes after lauric acid): significantly inhibited lesion progression
Inhibition of lesion progression ([1]; i.v. infusion at 1 μg/kg/minutes for 30 minutes starting 5 minutes before lauric acid): significantly inhibited lesion progression
Effect on lauric acid-induced reduction in dermal blood flow ([2]; continuous i.v. infusion 1 μg/kg/minutes, after lauric acid injection): no improvement in the blood flow
Dermal blood flow in both hindlimbs before lauric acid ([2]; i.v. infusion 1 μg/kg/minutes, 5 minutes after the start of the infusion): marked increase in dermal blood flow

COC(=O)[C@H](c1ccccc1Cl)N1CCc2sccc2C1 [clopidogrel, (+)-(S)-methyl 2-(2-chlorophenyl)-2-(6,7-dihydrothieno[3,2-c]pyridin-5(4H)-yl)acetate]
Inhibition of lesion progression ([1]; oral, administered 4 hours before the lauric acid injection): efficacy of clopidogrel was detected
Inhibition of lesion progression ([1]; oral, administered after the lauric acid injection): no effect was observed
Effect on lauric acid-induced reduction in dermal blood flow ([2]; 30 mg/kg oral 4 hours before the experiment): improved the blood flow only slightly

C=C1C(=O)N[C@@H](C)C(=O)N(C)[C@@H](C)C(=O)N[C@@H]([C@H](OC(=O)[C@@H](NC(C)=O)[C@H](O)C(C)C)C(C)C)C(=O)N(C)C([C@@H](C)OC)C(=O)O[C@H](C)[C@H](NC(C)=O)C(=O)O[C@H](Cc2ccccc2)C(=O)N1C (stereo partly drawn) [compound (I)] (Ac-T[dPhLac][NMeDha]A[NMeA][Leu(3R-O(AcLeu(3R-OH)))][X1]; ester 1-C)
Effect on KCl-induced contractions (isolated rat aorta; 60 mM KCl, even at a concentration of 1 μM): ineffective
IC50 (isolated rat aorta; contraction induced by 30 nM ET-1, aorta with endothelium, n=4, mean, read-out: IC50 of inhibition of vascular contraction): 18 nM
IC50 (isolated rat aorta; contraction induced by 10 μM 5-HT, aorta with endothelium, n=4, mean±SEM, read-out: IC50 of inhibition of vascular contraction): 8.6 ± 1 nM
IC50 (isolated rat aorta; span over the three vasoconstrictors, read-out: IC50 values for vasoconstrictions induced by phenylephrine, 5-HT and ET-1): 8.6 to 18 nM
IC50 (isolated rat aorta; with endothelium, pre-contracted with 1 μM phenylephrine, n=4, mean±SEM, read-out: IC50 of relaxation of isolated rat aorta): 16 ± 2.3 nM
IC50 (isolated rat aorta; without endothelium, pre-contracted with 1 μM phenylephrine, n=4, mean±SEM, read-out: IC50 of relaxation of isolated rat aorta): 11 nM
Inhibitory rate of ADP-induced platelet aggregation ([3]; 1 μg/kg i.a. bolus): −5.6±5.4%
Inhibitory rate of ADP-induced platelet aggregation ([3]; 3 μg/kg i.a. bolus): 38±5.1%
Inhibitory rate of ADP-induced platelet aggregation ([3]; 10 μg/kg i.a. bolus): 71±7.0%
Dose inhibiting lesion progression with significance ([1]; single i.a. bolus 15 minutes after the lauric acid injection, day 3): ≥ 0.003 mg/kg
Effect on lauric acid-induced reduction in dermal blood flow ([2]; 10 μg/kg i.a. bolus 15 minutes after the lauric acid injection): improved the lauric acid-induced reduction in dermal blood flow somewhat, but did not correct it completely
Relative mean blood pressure reduction ([4]; 30 μg/kg i.a. bolus): 25±5.2%
Relative mean blood pressure reduction ([4]; 100 μg/kg i.a. bolus): 50±2.1%
Hypotensive dose relative to dose with significant preventive effect (Example 4) ([4]; i.a. administration): 10 times
Significant hypotensive dose ([4]; i.a. bolus, Example 6): 0.03 mg/kg
Change of the heart rate ([4]; up to 100 μg/kg i.a.): no significant change
half-life [5]: 3.7 min
Gq/11 inhibition (Gq/11): specific Gq/11 inhibitor
Inhibition of ADP-induced platelet aggregation in human [6]: inhibits ADP-induced platelet aggregation in human
